In patent US8354436B2 (4SC Discovery GmbH, priority 2011, dated 2013) one finds IC50 data, which are given here for 20 compounds.

Holding throughout (assay type): cell-based
One assay has as its system IL-17FF. In words: IL-17FF production by PHA-stimulated human PBMC (human IL-17F ELI-Pair). The settings on record: human PBMC, 2 μg/ml PHA, 48 hours; read-out: B: IC50 (IL-17FF). As for the experimental part:
Analysis of Proliferation of and Cytokine Production by Human PBMC Stimulated with PHA
Peripheral blood mononuclear cells (PBMC) from healthy human donors were purified using Accuspin™ System-Histopaque-1077 (Sigma) according to the protocol recommended by the manufacturer. Purified PBMC were then washed twice with phosphate-buffered saline (PBS) and resuspended in RPMI1640 culture medium supplemented with 10% dialyzed heat inactivated fetal calf serum, 1.5 mM L-glutamine, 100 U penicillin/ml, and […] (all from PAN Biotech, Aidenbach, Germany). For stimulation, PBMC were seeded at 1×10^5 cells/well, activated with 2 μg/ml phytohaemagglutinin (PHA, Sigma) and incubated with the test compounds for 48 hours. IL-17A, IL-17F and INF-γ were then determined in the culture supernatant using a Luminex BioPlex system, following the manufacturer's instructions (BioRad, Munich, Germany). For screening, compounds were used at 10, 1, 0.1 and 0.01 μM. To determine the IC50, compounds were titrated semilogarithmically.
Cytokines were determined in the aforementioned culture supernatant using the following methods: IL-17AA/AF was measured using the Luminex BioPlex system (BioRad, Munich, Germany); IL-17AA using the human homodimer IL-17A ELISA Ready Set Go Kit from eBioscience (Frankfurt, Germany); IL-17FF using the human IL-17F ELI-Pair from Hölzel DiagnosticaGmBH (Köln, Germany); and IFN-γ using the OptEIA human IFN-g ELISA from BD Bioscience (Heidelberg, Germany), all following the manufacturer's instructions.

For a further assay, the system named is IFN-γ. In words: IFN-γ production by PHA-stimulated human PBMC (OptEIA human IFN-g ELISA). To be noted: human PBMC, 2 μg/ml PHA, 48 hours; read-out: C: IC50 (IFNγ). The essentials: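 Compounds tested on PHA (2 μg/ml)-stimulated human PBMC, 1×10^5 cells/well, 48 h, at 10, 1, 0.1 and 0.01 μM or semilog titration for IC50. Cytokines in culture supernatant: IL-17AA/AF by Luminex BioPlex; IL-17AA, IL-17FF, IFN-γ by separate ELISAs.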
Background: In an ELISA, binding on a coated surface is turned into a signal by an enzyme label.

Assay [1] relates to PBMC from healthy human donors. The experiment in a line: T cell proliferation assay (PHA-stimulated human PBMC, BrdU ELISA). The settings on record: human PBMC, 2 μg/ml PHA, 48 hours, read-out: D: IC50 (Tcell proliferation). An outline of the steps: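 Proliferation was quantified by BrdU ELISA 48 hours after starting culture of 1×10⁵ human PBMC per well with test compound and 2 μg/ml phytohaemagglutinin. Cells came from healthy donors via Ficoll separation and were kept in RPMI1640 with 10% dialysed heat-inactivated FCS.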
(In general: Incorporation of labelled thymidine or its analogues reports DNA synthesis.)

The structures appear in SMILES notation.

Turning to `COc1csc(-c2c(-c3c(F)cccc3Cl)noc2-c2cnn(-c3cccc(F)c3)c2C(F)(F)F)n1` [Example 10, 3-(2-chloro-6-fluorophenyl)-5-(1-(3-fluorophenyl)-5-(trifluoromethyl)-1H-pyrazol-4-yl)-4-(4-methoxythiazol-2-yl)isoxazole], the values for the IC50 (in the assay with IL-17FF; in the assay on IFN-γ; in assay [1]) were 100 to 1000 nM, 10 to 100 nM and 10 to 100 nM, respectively.

As for `Fc1cccc(-n2ncc(-c3onc(-c4c(F)cccc4Cl)c3-c3ccccc3)c2C(F)(F)F)c1` [Example 14, 3-(2-chloro-6-fluorophenyl)-5-(1-(3-fluorophenyl)-5-(trifluoromethyl)-1H-pyrazol-4-yl)-4-phenylisoxazole], the IC50 in the assay with IL-17FF fell in the range of 100 to 1000 nM; with IFN-γ, 10 to 100 nM; in assay [1] it was 100 to 1000 nM.

On to `Fc1ccccc1-n1ncc(-c2onc(-c3c(F)cccc3Cl)c2-c2nnco2)c1C(F)(F)F` [Example 15, 2-(3-(2-chloro-6-fluorophenyl)-5-(1-(2-fluorophenyl)-5-(trifluoromethyl)-1H-pyrazol-4-yl)isoxazol-4-yl)-1,3,4-oxadiazole], for which the IC50 (in the assay on IL-17FF; with IFN-γ; in assay [1]) was 100 to 1000 nM throughout.

In the case of `Fc1cccc(-n2ncc(-c3onc(-c4c(F)cccc4Cl)c3-c3ccsc3)c2C(F)(F)F)c1` [Example 16, 3-(2-chloro-6-fluorophenyl)-5-(1-(3-fluorophenyl)-5-(trifluoromethyl)-1H-pyrazol-4-yl)-4-(thiophen-3-yl)isoxazole], the results for the IC50 (with IL-17FF; in the assay on IFN-γ; in assay [1]) were 100 to 1000 nM, below 10 nM and below 10 nM, respectively.

Consider `Fc1cccc(-n2ncc(-c3onc(-c4c(F)cccc4Cl)c3-c3ccco3)c2C(F)(F)F)c1` [Example 17, 3-(2-chloro-6-fluorophenyl)-5-(1-(3-fluorophenyl)-5-(trifluoromethyl)-1H-pyrazol-4-yl)-4-(furan-2-yl)isoxazole], for which the IC50 (in the assay on IL-17FF; with IFN-γ; in assay [1]) was below 10 nM each time.

As for `CCOC(=O)c1csc(-c2c(-c3c(F)cccc3Cl)noc2-c2cnn(-c3cccc(F)c3)c2C(F)(F)F)n1` [Example B-1, ethyl 2-(3-(2-chloro-6-fluorophenyl)-5-(1-(3-fluorophenyl)-5-(trifluoromethyl)-1H-pyrazol-4-yl)isoxazol-4-yl)thiazole-4-carboxylate], the IC50 (with IL-17FF; in the assay on IFN-γ; in assay [1]) was 100 to 1000 nM in each case.

For `Cc1nnc(-c2c(-c3c(F)cccc3Cl)noc2-c2cnn(-c3cccc(Cl)c3)c2C(F)(F)F)s1` [Example B-3, 3-(2-chloro-6-fluorophenyl)-5-(1-(3-chlorophenyl)-5-(trifluoromethyl)-1H-pyrazol-4-yl)-4-(5-methyl-1,3,4-thiadiazol-2-yl)isoxazole], the IC50 (in the assay with IL-17FF; in the assay with IFN-γ; in assay [1]) was below 10 nM in each case.

Take `Cc1nnc(-c2c(-c3c(F)cccc3Cl)noc2-c2cnn(-c3cccc(Cl)c3)c2C(F)(F)F)o1` [Example B-4, 2-(3-(2-chloro-6-fluorophenyl)-5-(1-(3-chlorophenyl)-5-(trifluoromethyl)-1H-pyrazol-4-yl)isoxazol-4-yl)-5-methyl-1,3,4-oxadiazole]: the IC50 (in the assay with IL-17FF; in the assay with IFN-γ; in assay [1]) was below 10 nM each time.

Turning to `Fc1cccc(Cl)c1-c1noc(-c2cnn(-c3cccc(Cl)c3)c2C(F)(F)F)c1-c1nnco1` [Example B-5, 2-(3-(2-chloro-6-fluorophenyl)-5-(1-(3-chlorophenyl)-5-(trifluoromethyl)-1H-pyrazol-4-yl)isoxazol-4-yl)-1,3,4-oxadiazole], the IC50 (in the assay on IL-17FF; in the assay on IFN-γ; in assay [1]) was below 10 nM each time.

Consider `Fc1cccc(Cl)c1-c1noc(-c2cnn(-c3cccc(Cl)c3)c2C(F)(F)F)c1-c1ccco1` [Example B-6, 3-(2-chloro-6-fluorophenyl)-5-(1-(3-chlorophenyl)-5-(trifluoromethyl)-1H-pyrazol-4-yl)-4-(furan-2-yl)isoxazole], for which the IC50 (with IL-17FF; in the assay with IFN-γ; in assay [1]) was below 10 nM each time.

Consider `Fc1cccc(Cl)c1-c1noc(-c2cnn(-c3cccc(Cl)c3)c2C(F)(F)F)c1-c1ccoc1` [Example B-7, 3-(2-chloro-6-fluorophenyl)-5-(1-(3-chlorophenyl)-5-(trifluoromethyl)-1H-pyrazol-4-yl)-4-(furan-3-yl)isoxazole], for which the IC50 (in the assay with IL-17FF; in the assay with IFN-γ; in assay [1]) was below 10 nM each time.

For `Fc1cccc(Cl)c1-c1noc(-c2cnn(-c3cccc(Cl)c3)c2C(F)(F)F)c1-c1nncs1` [Example B-8, 3-(2-chloro-6-fluorophenyl)-5-(1-(3-chlorophenyl)-5-(trifluoromethyl)-1H-pyrazol-4-yl)-4-(1,3,4-thiadiazol-2-yl)isoxazole], the IC50 (in the assay with IL-17FF; in the assay with IFN-γ; in assay [1]) was below 10 nM in each case.

For the compound `Cc1nnc(-c2c(-c3c(F)cccc3Cl)noc2-c2cnn(-c3cccnc3)c2C(F)(F)F)o1` [Example B-10, 2-(3-(2-chloro-6-fluorophenyl)-5-(1-(pyridin-3-yl)-5-(trifluoromethyl)-1H-pyrazol-4-yl)isoxazol-4-yl)-5-methyl-1,3,4-oxadiazole], the IC50 in the assay on IL-17FF fell in the range of 100 to 1000 nM; in the assay with IFN-γ, 10 to 100 nM; in assay [1], 100 to 1000 nM.

`CC(=O)Nc1cccc(-n2ncc(-c3onc(-c4c(F)cccc4Cl)c3-c3nnc(C)s3)c2C(F)(F)F)c1` [Example B-12, N-(3-(4-(3-(2-chloro-6-fluorophenyl)-4-(5-methyl-1,3,4-thiadiazol-2-yl)isoxazol-5-yl)-5-(trifluoromethyl)-1H-pyrazol-1-yl)phenyl)acetamide]: the IC50 with IL-17FF lay within 1000 to 10000 nM; in the assay on IFN-γ, 100 to 1000 nM; in assay [1], 1000 to 10000 nM.

Take `Fc1cccc(Cl)c1-c1noc(-c2cnn(-c3cccnc3)c2C(F)(F)F)c1-c1nnco1` [Example B-15, 2-(3-(2-chloro-6-fluorophenyl)-5-(1-(pyridin-3-yl)-5-(trifluoromethyl)-1H-pyrazol-4-yl)isoxazol-4-yl)-1,3,4-oxadiazole]: the IC50 (in the assay with IL-17FF; in the assay with IFN-γ; in assay [1]) was 100 to 1000 nM in each case.

For the compound `Fc1cccc(Cl)c1-c1noc(-c2cnn(-c3ccncc3)c2C(F)(F)F)c1-c1nnco1` [Example B-16, 2-(3-(2-chloro-6-fluorophenyl)-5-(1-(pyridin-4-yl)-5-(trifluoromethyl)-1H-pyrazol-4-yl)isoxazol-4-yl)-1,3,4-oxadiazole], the IC50 (with IL-17FF; in the assay on IFN-γ; in assay [1]) was 100 to 1000 nM throughout.

For `NS(=O)(=O)c1cccc(-n2ncc(-c3onc(-c4c(F)cccc4Cl)c3-c3nnco3)c2C(F)(F)F)c1` [Example B-17, 3-(4-(3-(2-chloro-6-fluorophenyl)-4-(1,3,4-oxadiazol-2-yl)isoxazol-5-yl)-5-(trifluoromethyl)-1H-pyrazol-1-yl)benzenesulfonamide], the IC50 (in the assay on IL-17FF; with IFN-γ; in assay [1]) was 1000 to 10000 nM each time.

Take `Cc1nnc(-c2c(-c3c(F)cccc3Cl)noc2-c2cnn(-c3ccccc3Cl)c2C(F)(F)F)o1` [Example B-18, 2-(3-(2-chloro-6-fluorophenyl)-5-(1-(2-chlorophenyl)-5-(trifluoromethyl)-1H-pyrazol-4-yl)isoxazol-4-yl)-5-methyl-1,3,4-oxadiazole]: the IC50 (in the assay with IL-17FF; in the assay with IFN-γ; in assay [1]) was 1000 to 10000 nM each time.

As for `Cc1nnc(-c2c(-c3c(F)cccc3Cl)noc2-c2cnn(-c3ccncc3)c2C(F)(F)F)o1` [Example B-19, 2-(3-(2-chloro-6-fluorophenyl)-5-(1-(pyridin-4-yl)-5-(trifluoromethyl)-1H-pyrazol-4-yl)isoxazol-4-yl)-5-methyl-1,3,4-oxadiazole], the IC50 (in the assay with IL-17FF; in the assay on IFN-γ; in assay [1]) was 100 to 1000 nM each time.

For `Cc1nnc(-c2c(-c3c(F)cccc3Cl)noc2-c2cnn(-c3ccccc3Cl)c2C(F)(F)F)s1` [Example B-20, 3-(2-chloro-6-fluorophenyl)-5-(1-(2-chlorophenyl)-5-(trifluoromethyl)-1H-pyrazol-4-yl)-4-(5-methyl-1,3,4-thiadiazol-2-yl)isoxazole], the IC50 (in the assay on IL-17FF; with IFN-γ; in assay [1]) was 100 to 1000 nM in each case.
